Source: ChEMBL document CHEMBL2439953, “Dimeric argininamide-type neuropeptide Y receptor antagonists: chiral discrimination between Y1 and Y4 receptors” (Bioorg Med Chem, 2013)

Experiments:
[1] = biological target: T1, Neuropeptide Y receptor type 4 (Homo sapiens, UniProt P50391); test: Binding affinity to human neuropeptide Y receptor type 4 receptor expressed in CHO cells using Cy5-[K4]-hPP by flow cytometric analysis; assay type: cell-based
[2] = biological target: T2, Neuropeptide Y receptor type 1 (Homo sapiens, UniProt P25929); test: Displacement of [3H]UR-MK114 from human neuropeptide Y receptor type 1 expressed in human SK-N-MC cells; assay type: cell-based
T2 sequence (P25929 whole entry): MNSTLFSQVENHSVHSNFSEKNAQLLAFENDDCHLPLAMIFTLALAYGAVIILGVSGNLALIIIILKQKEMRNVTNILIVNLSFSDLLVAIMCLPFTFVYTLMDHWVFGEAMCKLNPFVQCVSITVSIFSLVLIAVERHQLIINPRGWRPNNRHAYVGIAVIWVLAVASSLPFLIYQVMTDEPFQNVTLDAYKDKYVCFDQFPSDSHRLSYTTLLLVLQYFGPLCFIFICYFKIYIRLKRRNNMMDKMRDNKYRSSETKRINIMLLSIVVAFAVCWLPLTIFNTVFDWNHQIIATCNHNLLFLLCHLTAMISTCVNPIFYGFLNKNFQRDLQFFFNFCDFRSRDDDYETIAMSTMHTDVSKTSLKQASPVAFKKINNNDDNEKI

[3] = biological target: T1, Neuropeptide Y receptor type 4; test: Antagonist activity at human neuropeptide Y receptor type 4 expressed in CHO cells co-expressing Gqi5-mtAEQ assessed as inhibition of hPP-induced calcium mobilization by Aequorin assay; assay type: functional, cell-based
[4] = biological target: T3, Neuropeptide Y receptor type 1 (Homo sapiens) (UniProt P25929); test: Antagonist activity at neuropeptide Y receptor type 1 in HEL assessed as inhibition of pNPY-induced calcium mobilization by Fura-2 calcium assay; assay type: functional
T3 sequence (whole entry): T2 sequence (P25929 whole entry)

[5] = biological target: T4, Neuropeptide Y receptor type 2 (Homo sapiens, UniProt P49146); test: Binding affinity to human neuropeptide Y receptor type 2 receptor expressed in CHO cells using Cy5-pNPY by flow cytometric analysis; assay type: cell-based
T4 sequence (P49146 whole entry): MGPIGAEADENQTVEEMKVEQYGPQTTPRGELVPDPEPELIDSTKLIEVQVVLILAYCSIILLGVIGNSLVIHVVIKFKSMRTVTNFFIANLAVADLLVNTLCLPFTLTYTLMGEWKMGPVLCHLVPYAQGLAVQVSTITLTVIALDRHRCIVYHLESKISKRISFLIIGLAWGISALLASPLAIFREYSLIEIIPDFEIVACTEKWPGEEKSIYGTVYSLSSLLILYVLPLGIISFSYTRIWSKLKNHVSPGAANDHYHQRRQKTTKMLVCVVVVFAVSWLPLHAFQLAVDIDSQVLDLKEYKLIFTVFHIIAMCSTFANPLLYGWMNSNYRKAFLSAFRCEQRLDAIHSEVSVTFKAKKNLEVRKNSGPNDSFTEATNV

[6] = biological target: T5, Neuropeptide Y receptor type 5 (Homo sapiens, UniProt Q15761); test: Binding affinity to human neuropeptide Y receptor type 5 receptor expressed in HEC-1B cells using Cy5-pNPY by flow cytometric analysis; assay type: cell-based
T5 sequence (Q15761 whole entry): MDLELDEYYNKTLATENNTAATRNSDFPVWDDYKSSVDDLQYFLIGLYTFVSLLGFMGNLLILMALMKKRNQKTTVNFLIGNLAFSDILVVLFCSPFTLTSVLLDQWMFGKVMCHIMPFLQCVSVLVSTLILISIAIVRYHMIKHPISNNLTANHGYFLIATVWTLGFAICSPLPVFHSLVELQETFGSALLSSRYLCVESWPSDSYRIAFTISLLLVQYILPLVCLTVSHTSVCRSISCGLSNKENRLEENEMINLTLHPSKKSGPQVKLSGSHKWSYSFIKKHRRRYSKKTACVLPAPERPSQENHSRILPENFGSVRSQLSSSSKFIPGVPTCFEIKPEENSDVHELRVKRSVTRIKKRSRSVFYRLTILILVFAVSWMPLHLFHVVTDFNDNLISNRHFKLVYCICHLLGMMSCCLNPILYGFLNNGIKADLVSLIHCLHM

[7] = biological target: T2, Neuropeptide Y receptor type 1; test: Displacement of [3H]UR-MK114 from human neuropeptide Y receptor type 1 expressed in human MCF7 cells; assay type: cell-based

T1 sequence (P50391 whole entry): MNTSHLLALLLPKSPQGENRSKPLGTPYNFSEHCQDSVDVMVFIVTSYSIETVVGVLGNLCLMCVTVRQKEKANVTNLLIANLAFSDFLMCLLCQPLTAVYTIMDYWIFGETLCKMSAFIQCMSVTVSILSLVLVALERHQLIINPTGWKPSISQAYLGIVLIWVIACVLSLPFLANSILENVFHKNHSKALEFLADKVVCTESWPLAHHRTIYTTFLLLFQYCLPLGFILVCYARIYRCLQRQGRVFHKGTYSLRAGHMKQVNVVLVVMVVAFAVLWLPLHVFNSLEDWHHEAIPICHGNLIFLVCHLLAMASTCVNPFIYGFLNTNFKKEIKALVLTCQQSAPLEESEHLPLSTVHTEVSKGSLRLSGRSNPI

NCCOCCOCCNC(=O)/N=C(/N)NCCC[C@H](NC(=O)C(c1ccccc1)c1ccccc1)C(=O)NCc1ccc(CNC(N)=O)cc1
Ki [1]: > 5000 nM
Ki [2]: > 5000 nM
Kb [3]: > 5000 nM
Kb [4]: > 5000 nM

N=C(N)NCCC[C@@H](NC(=O)C(c1ccccc1)c1ccccc1)C(=O)NCc1ccc(CNC(=O)NCCCCNC(=O)CCCC(=O)NCCN(CCN)CCNC(=O)CCCC(=O)NCCCCNC(=O)NCc2ccc(CNC(=O)[C@@H](CCCNC(=N)N)NC(=O)C(c3ccccc3)c3ccccc3)cc2)cc1
Ki [1]: 3500 nM
Ki [2]: 330 nM
Ki [5]: > 5000 nM
Ki [6]: > 5 µM
Ki [7]: 430 nM
Kb [3]: > 5000 nM
Kb [4]: 120 nM

NCCN(CCNC(=O)CCCC(=O)NCCOCCOCCNC(=O)/N=C(/N)NCCC[C@@H](NC(=O)C(c1ccccc1)c1ccccc1)C(=O)NCc1ccc(O)cc1)CCNC(=O)CCCC(=O)NCCOCCOCCNC(=O)/N=C(/N)NCCC[C@@H](NC(=O)C(c1ccccc1)c1ccccc1)C(=O)NCc1ccc(O)cc1
Ki [1]: 290 nM
Ki [2]: 29 nM
Ki [5]: 1500 nM
Ki [6]: > 5 µM
Ki [7]: 50 nM
Kb [3]: 44 nM

NCCN(CCNC(=O)CCC(=O)NCCOCCOCCNC(=O)/N=C(/N)NCCC[C@@H](NC(=O)C(c1ccccc1)c1ccccc1)C(=O)NCc1ccc(O)cc1)CCNC(=O)CCC(=O)NCCOCCOCCNC(=O)/N=C(/N)NCCC[C@@H](NC(=O)C(c1ccccc1)c1ccccc1)C(=O)NCc1ccc(O)cc1
Ki [1]: 470 nM
Ki [2]: 25 nM
Ki [5]: 1800 nM
Ki [6]: > 5 µM
Ki [7]: 37 nM
Kb [3]: 41 nM
Kb [4]: 1.1 nM

NCCN(CCNC(=O)CCCC(=O)/N=C(/N)NCCC[C@@H](NC(=O)C(c1ccccc1)c1ccccc1)C(=O)NCc1ccc(O)cc1)CCNC(=O)CCCC(=O)/N=C(/N)NCCC[C@@H](NC(=O)C(c1ccccc1)c1ccccc1)C(=O)NCc1ccc(O)cc1
Ki [1]: 390 nM
Ki [2]: 30 nM
Ki [5]: 620 nM
Ki [6]: > 5 µM
Kb [3]: 73 nM
Kb [4]: 4.2 nM

NCCN(CCNC(=O)c1ccc(C(=O)NCCOCCOCCNC(=O)/N=C(/N)NCCC[C@@H](NC(=O)C(c2ccccc2)c2ccccc2)C(=O)NCc2ccc(O)cc2)cc1)CCNC(=O)c1ccc(C(=O)NCCOCCOCCNC(=O)/N=C(/N)NCCC[C@@H](NC(=O)C(c2ccccc2)c2ccccc2)C(=O)NCc2ccc(O)cc2)cc1
Ki [1]: 130 nM
Ki [6]: > 5 µM
Ki [7]: 48 nM
Kb [3]: 20 nM
Kb [4]: 0.25 nM

NCCN(CCNC(=O)CCC(=O)NCCOCCOCCNC(=O)/N=C(/N)NCCC[C@H](NC(=O)C(c1ccccc1)c1ccccc1)C(=O)NCc1ccc(CNC(N)=O)cc1)CCNC(=O)CCC(=O)NCCOCCOCCNC(=O)/N=C(/N)NCCC[C@H](NC(=O)C(c1ccccc1)c1ccccc1)C(=O)NCc1ccc(CNC(N)=O)cc1
Ki [1]: 310 nM
Ki [2]: 3100 nM
Ki [5]: 1100 nM
Ki [6]: > 5 µM
Kb [3]: 140 nM
Kb [4]: 110 nM

NCCN(CCNC(=O)CCC(=O)NCCCCCCNC(=O)/N=C(\N)NCCC[C@H](NC(=O)CC1(CC(=O)N2CCN(C3c4ccccc4NC(=O)c4ccccc43)CC2)CCCC1)C(=O)NCCn1c(=O)n(-c2ccccc2)n(-c2ccccc2)c1=O)CCNC(=O)CCC(=O)NCCCCCCNC(=O)/N=C(\N)NCCC[C@@H](NC(=O)C(c1ccccc1)c1ccccc1)C(=O)NCc1ccc(O)cc1 (mixture of isomers)
Ki [1]: 910 nM
Ki [2]: 230 nM
Ki [5]: 85 nM
Ki [6]: > 5 µM
Ki [7]: 260 nM
Kb [3]: 72 nM
Kb [4]: 1.5 nM

CCC(=O)NCCN(CCNC(=O)c1ccc(C(=O)NCCOCCOCCNC(=O)/N=C(/N)NCCC[C@@H](NC(=O)C(c2ccccc2)c2ccccc2)C(=O)NCc2ccc(O)cc2)cc1)CCNC(=O)c1ccc(C(=O)NCCOCCOCCNC(=O)/N=C(/N)NCCC[C@@H](NC(=O)C(c2ccccc2)c2ccccc2)C(=O)NCc2ccc(O)cc2)cc1
Ki [1]: 410 nM
Ki [2]: 64 nM
Ki [5]: > 5000 nM
Ki [6]: > 5 µM
Ki [7]: 110 nM
Kb [3]: 36 nM

N/C(=N/C(=O)CCCCCCC(=O)/N=C(\N)NCCC[C@@H](NC(=O)C(c1ccccc1)c1ccccc1)C(=O)NCc1ccc(O)cc1)NCCC[C@@H](NC(=O)C(c1ccccc1)c1ccccc1)C(=O)NCc1ccc(O)cc1
Kb [3]: 98 nM
Kb [4]: 3.5 nM

NCCN(CCNC(=O)CCC(=O)NCCOCCOCCNC(=O)/N=C(/N)NCCC[C@@H](NC(=O)C(c1ccccc1)c1ccccc1)C(=O)NCc1ccc(CNC(N)=O)cc1)CCNC(=O)CCC(=O)NCCOCCOCCNC(=O)/N=C(/N)NCCC[C@@H](NC(=O)C(c1ccccc1)c1ccccc1)C(=O)NCc1ccc(CNC(N)=O)cc1
Ki [1]: 290 nM
Ki [2]: 230 nM
Ki [5]: 4000 nM
Ki [6]: > 5 µM
Ki [7]: 210 nM
Kb [3]: 96 nM
Kb [4]: 4.2 nM
